Laboratory results: PMC10121968, “Fosgonimeton, a Novel Positive Modulator of the HGF/MET System, Promotes Neurotrophic and Procognitive Effects in Models of Dementia” (Neurotherapeutics, 2022)
Non-standard residues stand in square brackets, D forms with d. Residues, ends and D or L forms follow the SMILES beside them. *: point of attachment. Hexanoyl = CCCCCC(=O)*; Ahx = NCCCCCC(=O)O

System: primary rat hippocampal neurons
Test: Neurite outgrowth assay (beta-III tubulin staining)
Format: cell-based
Conditions: 4 days, vs vehicle
Procedure: On day 0, rat hippocampal neurons from newborn pups were isolated and cultured in brain neuronal culture medium (neurobasal medium supplemented with 5% FBS, 2% B-27 supplement, and 0.003% gentamycin) at 37 °C under 5% CO2. At 1 day in vitro (DIV1), cells were transferred to a poly-D-lysine–coated 24-well plate at approximately 10,000 cells/well. Cells were then grown in […] of serum-free medium and treated with the following: 0.1% dimethyl sulfoxide (DMSO; vehicle), 10 nM dihydrotestosterone (positive control), 10 nM fosgo-AM, 1 nM fosgo-AM, 5 ng/ml HGF, or 5 ng/ml HGF + 1 nM fosgo-AM. All treatments contained a final concentration of 0.1% DMSO. For the neurite outgrowth assay, treatment media were refreshed on DIV3, and cells were processed for analysis on DIV4. For the synaptogenesis assay, treatment media were refreshed on DIV3 and DIV6, and cells were processed for analysis on DIV8. Processing for both the neurite outgrowth and the synaptogenesis assays was performed as follows: media were removed, and cells were fixed with 100% methanol for 20 min at RT before methanol was aspirated and each well was washed twice with Dulbecco’s phosphate-buffered saline (DPBS). Cells were permeabilized using 0.02% […] (ThermoFisher, Waltham, Massachusetts) in DPBS for 2 min at RT without shaking, and plates were blocked with 5% bovine serum albumin (BSA) in DPBS for 1 h at RT. Plates were then incubated overnight at 4 °C with gentle shaking with use of beta-III tubulin antibody (ab201740; Abcam, Boston, Massachusetts) to assess neurite outgrowth or with use of 1:500 rabbit anti–synaptobrevin-II antibody (Synaptic Systems, cat# 104 202, Göttingen, Germany) to assess synaptogenesis. After overnight incubation, plates were washed 3 times with DPBS and incubated for 1 h at RT with use of anti–rabbit immunoglobulin G–secondary antibody conjugated to Alexa Fluor 488 (Life Technologies, Carlsbad, California, 1:500). After 5 DPBS washes, coverslips were mounted on slides using fluorescent mounting medium (Golden Bridge International Labs, Bothell, Washington, cat# E19-s). Imaging was performed using the BX43 Olympus microscope driven by the standard “CellSens” software by Olympus. […] Ten images of single cells from a total of 2 assays were analyzed using NeuroJ plug-in for ImageJ to assess neurite outgrowth, as neurite length and the number of branches per neuron were counted for each cell. For the synaptogenesis assay, synaptic count (number of synapses) and synaptic strength (relative abundance of presynaptic vesicles per synapse as measured by synaptobrevin-II fluorescence intensity) were quantified for each cell. Data were assessed for normality (Shapiro–Wilk) and homoscedasticity (Brown-Forsythe). […]

CCCCCC(=O)N[C@@H](Cc1ccc(O)cc1)C(=O)N[C@H](C(=O)NCCCCCC(N)=O)[C@@H](C)CC [fosgo-AM] (Hexanoyl-Tyr-Ile-[Ahx]-NH2)
neurite length per cell (1 nM fosgo-AM + 5 ng/mL HGF): significantly increased neurite length per cell
neurite length per cell (10 nM): significant increase in neurite length per cell
number of neurite branches (HGF ± fosgo-AM): did not reach statistical significance
